Measurements published in ChEMBL document CHEMBL1201862, “PubChem BioAssay data set” (2004).
Activity calls are given as the source filed them.

Legend:
[1] = intracellular Trypanosoma cruzi inhibitors in host cells – cell-based, plate reader, cherry-pick samples, set 3, dose response (AID 651818); type: functional;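 note: compounds incubated with infected cells for about four days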
[2] = biological target: T1, Endoribonuclease toxin MazF (Escherichia coli K-12, UniProt P0AE70); experiment: fluorescent RNA oligo signal without MazF, dose response, counter-screen for MazEF activator project, biochemical, fluorescence, single-stranded RNase substrate (AID 588502); type: functional
T1 sequence (P0AE70 whole entry): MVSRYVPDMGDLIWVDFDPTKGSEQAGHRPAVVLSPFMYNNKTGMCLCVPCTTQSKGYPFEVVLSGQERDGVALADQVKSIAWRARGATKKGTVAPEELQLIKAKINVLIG

[3] = biological target: T1, Endoribonuclease toxin MazF; experiment: MazF toxin RNase activators, dose response, biochemical, fluorescence, single-stranded RNA substrate, uHTS hits (AID 588481); type: functional
[4] = LGR2 antagonists, dose response, cell-based, HEK293, CRE-luciferase reporter, cherry pick, set 2 (AID 743343); type: functional;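 note: transfected cells were stimulated with diluted bursicon conditioned medium after compound addition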
[5] = HepG2 cell cytotoxicity, dose response, cytotoxicity control, plate reader, cherry-pick, antagonist series (AID 743416); type: functional, cell-based
[6] = tested on: HEK293; experiment: inhibitors of LMP1-driven NF-kB reporter, dose response, cell-based, HEK293, luciferase, cherry-pick (AID 588343); type: functional; conditions: Homo sapiens
[7] = A549 cell cytotoxicity, dose response, cytotoxicity control, plate reader, cherry-pick, antagonist series (AID 743412); type: functional, cell-based
[8] = MC4R antagonists, dose response, counter-screen for LGR2 antagonist project, cell-based, plate reader, cherry pick (AID 743444); type: functional;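 note: transfected HEK 293 cells stimulated with alpha-MSH peptide; potency of inhibitors of the alpha-MSH evoked signal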
[9] = HEp-2 cell cytotoxicity, dose response, cytotoxicity control for RSV inhibitor project, HTS (AID 2410); type: functional; conditions: human respiratory syncytial virus
[10] = StAR promoter reporter inhibition counter-screen, dose response, counter-screen for LRH-1 inverse agonist project, cell-based, luminescence, luciferase reporter (AID 651969); type: functional
[11] = biological target: Steroidogenic factor 1 (Homo sapiens, UniProt Q13285); experiment: Counterscreen for inverse agonists of the liver receptor homolog-1 (LRH-1; NR5A2): Luminescence-based cell-based high throughput dose response assay to identify inverse agonists of the Steroidogenic Factor 1 Nuclear Receptor (SF1; NR5A1).; type: functional
[12] = biological target: Nuclear receptor subfamily 5 group A member 2 (Homo sapiens, UniProt O00482); type: functional, cell-based;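 note: HEK293T cells transfected with LRH-1 and a StAR promoter luciferase reporter; potency for inhibitors that lower LRH-1 driven reporter light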
[13] = HEK293 cell cytotoxicity, dose response, cytotoxicity control, plate reader, cherry-picked samples (AID 743446); type: functional, cell-based
[14] = biological target: Genome polyprotein (dengue virus type 2, UniProt P29990); experiment: Dengue-2 NS5 methyltransferase inhibitors, primary screen, biochemical, confirmation dose response (AID 588689); type: functional
[15] = biological target: FAD-linked sulfhydryl oxidase ALR (Homo sapiens, UniProt P55789); experiment: inhibitors of human ALR sulfhydryl oxidase, dose response, biochemical, H2O2 detection, luminescence, cherry-pick (AID 493248)
[16] = NIH-3T3 fibroblast cytotoxicity, dose response, cytotoxicity control, cell-based, fluorescence, Alamar Blue, secondary assay (AID 2327); type: functional;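 note: NIH-3T3 mouse fibroblasts cultured with fluconazole at 8 µg/mL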
[17] = biological target: T2, Corticotropin-releasing factor receptor 2/Corticotropin-releasing factor-binding protein (Homo sapiens, UniProt P24387+Q13324); experiment: activators of CRF receptor 2 with binding protein – uHTS hits, confirmation (AID 602473); type: functional; conditions: read-out: EC50_Mean
T2 sequence (Q13324 whole entry): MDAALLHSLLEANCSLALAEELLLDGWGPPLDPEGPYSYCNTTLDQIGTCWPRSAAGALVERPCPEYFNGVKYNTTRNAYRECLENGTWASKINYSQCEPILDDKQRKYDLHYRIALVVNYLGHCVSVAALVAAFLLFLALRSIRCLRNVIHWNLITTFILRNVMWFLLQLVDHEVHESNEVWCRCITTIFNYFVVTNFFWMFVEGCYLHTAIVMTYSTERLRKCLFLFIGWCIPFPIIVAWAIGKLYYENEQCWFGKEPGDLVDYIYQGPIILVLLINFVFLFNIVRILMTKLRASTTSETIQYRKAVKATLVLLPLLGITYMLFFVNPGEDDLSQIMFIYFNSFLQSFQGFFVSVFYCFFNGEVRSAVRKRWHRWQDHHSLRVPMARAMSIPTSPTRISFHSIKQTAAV
T2 sequence (P24387 whole entry): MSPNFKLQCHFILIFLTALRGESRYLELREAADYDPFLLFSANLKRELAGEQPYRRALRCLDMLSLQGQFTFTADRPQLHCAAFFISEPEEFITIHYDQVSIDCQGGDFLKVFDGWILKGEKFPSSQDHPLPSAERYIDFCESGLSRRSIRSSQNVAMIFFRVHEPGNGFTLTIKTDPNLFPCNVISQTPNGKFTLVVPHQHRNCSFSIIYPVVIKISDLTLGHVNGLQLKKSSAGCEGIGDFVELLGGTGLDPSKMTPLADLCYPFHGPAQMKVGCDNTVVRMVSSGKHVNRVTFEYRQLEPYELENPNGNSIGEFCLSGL

[18] = biological target: Large T antigen (Simian virus 40, UniProt P03070); type: functional, Betapolyomavirus macacae;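 note: Confirmatory-stage PubChem screen for compounds that inhibit SV40 T antigen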
[19] = biological target: T3, Beta-lactamase (Pseudomonas aeruginosa, UniProt Q79MP6); experiment: IMP-1 metallo-beta-lactamase inhibitors, dose response, selectivity assay for VIM-2 inhibitor project, biochemical, epi-absorbance (AID 1920)
[20] = biological target: Beta-lactamase (Salmonella choleraesuis (strain SC-B67), UniProt Q5J463); experiment: Epi-absorbance-based counterscreen for selective VIM-2 inhibitors: dose response biochemical high throughput screening assay to identify inhibitors of TEM-1 serine-beta-lactamase.
[21] = biological target: T3, Beta-lactamase; experiment: […] counterscreen for selective VIM-2 inhibitors: dose response biochemical high throughput screening assay to identify inhibitors of IMP-1 metallo-beta-lactamase.
[22] = biological target: T4, Replicative DNA helicase DnaB (Mycobacterium tuberculosis, UniProt P9WMR3); experiment: DnaB intein splicing inhibitors, dose response, biochemical, cell-free fluorescence (AID 449749); type: functional
T4 sequence (P9WMR3 whole entry): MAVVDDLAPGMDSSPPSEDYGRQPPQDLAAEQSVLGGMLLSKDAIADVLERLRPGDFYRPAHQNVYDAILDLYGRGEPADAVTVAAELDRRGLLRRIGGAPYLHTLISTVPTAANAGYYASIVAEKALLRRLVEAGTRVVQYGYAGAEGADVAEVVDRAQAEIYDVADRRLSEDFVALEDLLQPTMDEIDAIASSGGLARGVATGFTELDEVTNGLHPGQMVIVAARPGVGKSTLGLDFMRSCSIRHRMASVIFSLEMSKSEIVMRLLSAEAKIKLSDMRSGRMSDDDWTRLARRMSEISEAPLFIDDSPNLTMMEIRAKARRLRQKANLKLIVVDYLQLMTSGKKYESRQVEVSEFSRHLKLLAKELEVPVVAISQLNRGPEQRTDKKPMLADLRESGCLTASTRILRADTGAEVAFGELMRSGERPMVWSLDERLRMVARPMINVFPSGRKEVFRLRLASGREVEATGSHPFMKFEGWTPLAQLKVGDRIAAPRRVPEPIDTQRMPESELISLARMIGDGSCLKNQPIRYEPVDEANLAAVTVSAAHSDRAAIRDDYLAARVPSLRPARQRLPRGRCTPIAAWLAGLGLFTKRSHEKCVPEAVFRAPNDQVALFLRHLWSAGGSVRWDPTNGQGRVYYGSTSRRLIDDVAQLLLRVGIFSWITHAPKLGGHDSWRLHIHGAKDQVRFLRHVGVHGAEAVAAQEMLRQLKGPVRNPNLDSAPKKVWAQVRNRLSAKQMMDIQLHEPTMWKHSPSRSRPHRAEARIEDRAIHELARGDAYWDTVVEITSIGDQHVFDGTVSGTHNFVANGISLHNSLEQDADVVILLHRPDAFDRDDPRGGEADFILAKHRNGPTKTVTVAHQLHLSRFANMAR

[23] = biological target: T5, Protein RecA (Mycobacterium tuberculosis, UniProt P9WHJ3); experiment: Fluorescence Cell-Free Homogeneous Dose Retest to Identify Inhibitors of RecA-Intein Splicing Activity. [Related pubchem assays (depositor defined):AID2097, AID2223, AID489010, AID492950]; type: functional
T5 sequence (P9WHJ3 whole entry): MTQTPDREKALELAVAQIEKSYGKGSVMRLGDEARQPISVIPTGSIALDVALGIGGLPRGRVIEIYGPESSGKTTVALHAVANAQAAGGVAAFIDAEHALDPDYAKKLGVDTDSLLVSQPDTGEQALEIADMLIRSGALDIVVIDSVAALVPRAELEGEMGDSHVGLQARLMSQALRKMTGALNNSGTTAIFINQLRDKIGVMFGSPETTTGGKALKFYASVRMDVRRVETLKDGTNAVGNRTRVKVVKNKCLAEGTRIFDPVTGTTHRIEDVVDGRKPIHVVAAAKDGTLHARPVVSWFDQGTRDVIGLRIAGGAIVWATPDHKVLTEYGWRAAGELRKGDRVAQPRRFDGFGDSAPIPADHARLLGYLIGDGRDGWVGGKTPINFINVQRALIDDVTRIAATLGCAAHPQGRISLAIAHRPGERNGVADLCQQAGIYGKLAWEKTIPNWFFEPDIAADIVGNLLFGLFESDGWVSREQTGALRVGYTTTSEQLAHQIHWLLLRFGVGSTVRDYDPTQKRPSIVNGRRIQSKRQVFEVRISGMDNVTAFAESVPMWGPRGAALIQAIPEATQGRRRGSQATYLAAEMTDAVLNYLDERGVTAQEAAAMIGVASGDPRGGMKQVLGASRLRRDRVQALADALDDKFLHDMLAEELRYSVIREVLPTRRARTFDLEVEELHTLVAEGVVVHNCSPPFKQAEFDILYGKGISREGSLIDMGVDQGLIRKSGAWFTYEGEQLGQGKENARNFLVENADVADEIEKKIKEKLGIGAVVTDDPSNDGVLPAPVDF

T3 sequence (Q79MP6 whole entry): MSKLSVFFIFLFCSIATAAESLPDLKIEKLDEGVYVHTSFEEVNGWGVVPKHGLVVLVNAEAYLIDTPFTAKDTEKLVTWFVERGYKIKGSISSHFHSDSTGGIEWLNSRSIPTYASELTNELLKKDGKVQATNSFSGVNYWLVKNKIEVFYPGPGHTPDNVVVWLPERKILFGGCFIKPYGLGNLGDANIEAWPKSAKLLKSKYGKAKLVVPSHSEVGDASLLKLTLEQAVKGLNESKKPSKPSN
Chain of Beta-lactamase (Salmonella choleraesuis (strain SC-B67), UniProt Q5J463) (Q5J463 whole entry): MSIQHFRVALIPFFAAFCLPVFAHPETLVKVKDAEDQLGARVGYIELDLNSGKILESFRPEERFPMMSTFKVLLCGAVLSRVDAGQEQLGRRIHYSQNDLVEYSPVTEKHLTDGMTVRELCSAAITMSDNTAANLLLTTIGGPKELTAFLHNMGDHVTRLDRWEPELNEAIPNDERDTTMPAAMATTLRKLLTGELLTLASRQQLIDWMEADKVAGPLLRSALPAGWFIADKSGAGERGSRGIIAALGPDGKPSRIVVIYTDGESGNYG
Chain of Steroidogenic factor 1 (Q13285 whole entry): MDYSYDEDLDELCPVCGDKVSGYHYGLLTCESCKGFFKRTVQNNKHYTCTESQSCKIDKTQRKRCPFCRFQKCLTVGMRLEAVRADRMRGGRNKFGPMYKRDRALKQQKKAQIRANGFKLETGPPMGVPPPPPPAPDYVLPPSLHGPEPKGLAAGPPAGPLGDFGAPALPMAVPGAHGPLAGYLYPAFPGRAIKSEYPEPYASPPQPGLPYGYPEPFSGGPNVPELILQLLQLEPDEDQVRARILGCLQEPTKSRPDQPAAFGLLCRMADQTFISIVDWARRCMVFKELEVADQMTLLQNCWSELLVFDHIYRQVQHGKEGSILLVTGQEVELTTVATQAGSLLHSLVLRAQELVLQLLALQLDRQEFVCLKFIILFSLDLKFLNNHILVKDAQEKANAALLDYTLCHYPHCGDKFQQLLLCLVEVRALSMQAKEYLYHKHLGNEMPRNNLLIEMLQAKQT
Chain of Nuclear receptor subfamily 5 group A member 2 (O00482 whole entry): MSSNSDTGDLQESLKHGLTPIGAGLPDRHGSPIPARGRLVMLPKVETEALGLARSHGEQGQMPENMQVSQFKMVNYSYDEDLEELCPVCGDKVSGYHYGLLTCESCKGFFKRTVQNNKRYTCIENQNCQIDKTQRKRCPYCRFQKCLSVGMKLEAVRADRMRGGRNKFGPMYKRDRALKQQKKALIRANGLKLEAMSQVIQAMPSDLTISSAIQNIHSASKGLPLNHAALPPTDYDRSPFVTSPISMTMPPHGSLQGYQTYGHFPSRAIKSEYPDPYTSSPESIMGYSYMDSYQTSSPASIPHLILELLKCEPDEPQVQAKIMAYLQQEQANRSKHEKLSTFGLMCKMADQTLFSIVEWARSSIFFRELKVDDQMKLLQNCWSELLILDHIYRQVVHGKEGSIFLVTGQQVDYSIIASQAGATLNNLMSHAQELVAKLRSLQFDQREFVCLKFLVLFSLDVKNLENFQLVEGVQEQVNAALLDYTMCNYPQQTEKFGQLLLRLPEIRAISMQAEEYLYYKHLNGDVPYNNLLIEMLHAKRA
Chain of Genome polyprotein (P29990 2492-3391 limits assumed): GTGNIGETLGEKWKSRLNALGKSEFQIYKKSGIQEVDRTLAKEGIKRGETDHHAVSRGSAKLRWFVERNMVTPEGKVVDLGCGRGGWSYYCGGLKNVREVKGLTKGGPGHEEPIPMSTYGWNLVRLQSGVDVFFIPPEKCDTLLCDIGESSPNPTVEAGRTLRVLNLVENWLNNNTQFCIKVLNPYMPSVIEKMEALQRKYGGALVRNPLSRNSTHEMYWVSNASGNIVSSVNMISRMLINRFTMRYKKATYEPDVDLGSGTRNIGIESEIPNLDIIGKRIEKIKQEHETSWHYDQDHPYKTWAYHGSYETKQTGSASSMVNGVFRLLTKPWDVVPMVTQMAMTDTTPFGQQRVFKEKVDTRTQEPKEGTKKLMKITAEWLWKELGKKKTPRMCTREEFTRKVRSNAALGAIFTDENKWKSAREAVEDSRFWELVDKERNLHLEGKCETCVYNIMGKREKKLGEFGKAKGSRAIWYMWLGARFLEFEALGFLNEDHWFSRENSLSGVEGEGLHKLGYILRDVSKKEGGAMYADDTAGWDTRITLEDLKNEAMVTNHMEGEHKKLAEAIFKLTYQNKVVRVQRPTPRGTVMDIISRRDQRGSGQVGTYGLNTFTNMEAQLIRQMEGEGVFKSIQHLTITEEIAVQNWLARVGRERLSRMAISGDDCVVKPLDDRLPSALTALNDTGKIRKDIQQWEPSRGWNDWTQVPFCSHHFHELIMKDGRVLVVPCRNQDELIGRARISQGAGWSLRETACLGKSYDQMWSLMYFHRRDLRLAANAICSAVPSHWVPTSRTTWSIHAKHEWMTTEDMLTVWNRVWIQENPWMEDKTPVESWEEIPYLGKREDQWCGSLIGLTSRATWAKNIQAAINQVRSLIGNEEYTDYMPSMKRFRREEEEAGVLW
Chain of FAD-linked sulfhydryl oxidase ALR (P55789 whole entry): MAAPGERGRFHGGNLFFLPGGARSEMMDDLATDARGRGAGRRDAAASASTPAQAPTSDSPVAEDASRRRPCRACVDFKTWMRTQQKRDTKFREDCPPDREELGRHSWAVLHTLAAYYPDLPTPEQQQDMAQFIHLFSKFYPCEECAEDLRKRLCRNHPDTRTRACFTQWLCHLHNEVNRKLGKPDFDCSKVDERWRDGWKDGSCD
Chain of Large T antigen (P03070 whole entry): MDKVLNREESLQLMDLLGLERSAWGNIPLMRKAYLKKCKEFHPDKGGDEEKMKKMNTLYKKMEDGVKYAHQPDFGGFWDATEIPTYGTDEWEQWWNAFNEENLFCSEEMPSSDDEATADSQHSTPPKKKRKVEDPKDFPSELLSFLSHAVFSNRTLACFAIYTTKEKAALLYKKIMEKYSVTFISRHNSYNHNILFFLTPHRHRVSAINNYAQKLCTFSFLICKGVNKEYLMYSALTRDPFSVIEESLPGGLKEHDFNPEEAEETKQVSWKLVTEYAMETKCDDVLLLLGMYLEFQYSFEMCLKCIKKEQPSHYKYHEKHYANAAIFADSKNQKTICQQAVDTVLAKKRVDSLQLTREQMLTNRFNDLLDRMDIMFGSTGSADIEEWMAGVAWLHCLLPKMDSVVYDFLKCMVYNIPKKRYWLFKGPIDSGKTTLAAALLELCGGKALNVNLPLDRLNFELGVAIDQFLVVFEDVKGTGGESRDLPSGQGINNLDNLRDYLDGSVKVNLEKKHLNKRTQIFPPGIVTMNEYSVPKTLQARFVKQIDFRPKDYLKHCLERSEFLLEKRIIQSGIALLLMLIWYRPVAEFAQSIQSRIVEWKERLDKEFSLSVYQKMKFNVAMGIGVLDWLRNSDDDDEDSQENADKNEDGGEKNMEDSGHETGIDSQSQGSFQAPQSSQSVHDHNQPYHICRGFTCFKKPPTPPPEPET

C[C@H](CO)N1C[C@H](C)[C@H](CN(C)Cc2ccc(C(F)(F)F)cc2)Oc2ccc(NC(=O)Nc3ccc(F)cc3)cc2CC1=O
AC50 [1]: 2.19 µM (active)

Cc1cc(-c2ccccc2)c2c3c(c(-c4ccccc4)n2n1)c(=O)n(C)c(=O)n3C
EC50 [2]: > 99 µM (inactive)
EC50 [3]: > 99 µM (inactive)

Cc1cccc(-n2ncc3c(N4CCOCC4)ncnc32)c1
AC50 [4]: 3.92 µM (active)
AC50 [5]: > 52 µM (inactive)
AC50 [6]: 1.36 µM (active)
AC50 [7]: > 52 µM (inactive)
AC50 [8]: 3.94 µM (active)
CC50 [9]: 19.1 µM (active)

COc1ccc(NC(=O)CSc2nc(N)c(-c3ccccc3)c(O)n2)cc1
IC50 [10]: 35.9 µM (inactive)
IC50 [11]: 2.36 µM (active)
IC50 [12]: 9.88 µM (active)

C[C@@H]1CN([C@H](C)CO)C(=O)c2cccc(NC(=O)CCCCCC(=O)Nc3ccccc3N)c2O[C@H]1CN(C)CC1CC1
AC50 [1]: 3.12 µM (active)

Cc1csc(NC(=O)c2ccc(N3CCCC3=O)cc2)n1
AC50 [4]: 2.05 µM (active)
AC50 [6]: 1.52 µM (active)
AC50 [7]: > 52 µM (inactive)
AC50 [13]: > 52 µM (inactive)
AC50 [8]: 1.93 µM (active)

Cc1ccc(C)c(NC(=O)CSc2nc(O)c3c[nH]nc3n2)c1
IC50 [10]: 35.9 µM (inactive)
IC50 [11]: 6.65 µM (active)
IC50 [12]: 29 µM (inactive)

COC(=O)c1c(/N=C/N(C)C)sc2c1CCN(c1ncc(C(F)(F)F)cc1Cl)C2
EC50 [2]: > 99 µM (inactive)
EC50 [3]: > 99 µM (inactive)

O=C(NNc1ccc(O)cc1)c1ccc(Br)cc1
IC50 [14]: > 100 µM (active)
AC50 [15]: 96 nM (active)
EC50 [16]: 28.9 µM (active)

CCCCC(=O)Nc1ccc(C(=O)Nc2ccc(OC)cc2[N+](=O)[O-])cc1
EC50 [17]: 7.74 µM (active)
EC50 [2]: > 99 µM (inactive)
EC50 [3]: > 99 µM (inactive)

CC(=O)Nc1ccc(NC(=O)CSc2ccc(-c3ccc(-n4ccnc4)cc3)nn2)cc1
IC50 [10]: 35.9 µM (inactive)
IC50 [11]: 35.9 µM (inactive)
IC50 [12]: 35.9 µM (inactive)

CCn1c(/C=C/c2ccc(O)c(O)c2)nc2ccccc2c1=O
EC50 [2]: 88.4 µM (inactive)
IC50 [18]: 35.6 µM (active)
EC50 [3]: > 99 µM (inactive)

Cn1c(-c2sccc2OCc2ccc(Cl)cc2Cl)n[nH]c1=S
IC50 [19]: > 59.6 µM (inactive)
IC50 [20]: > 59.6 µM (inactive)
IC50 [21]: > 59.6 µM (inactive)

C[C@@H]1CCCCO[C@@H](CN(C)C(=O)Nc2ccc(C(F)(F)F)cc2)[C@@H](C)CN([C@H](C)CO)C(=O)c2cc(NS(=O)(=O)c3ccc(Cl)cc3)ccc2O1
AC50 [1]: 3.05 µM (active)

CC(=O)Nc1ccc(NC(=O)CSc2nnc(NC(=O)C3CC3)s2)cc1
IC50 [10]: 35.9 µM (inactive)
IC50 [11]: 8.29 µM (active)
IC50 [12]: 9.26 µM (active)

Cc1cccc(C2c3[nH]c4ccccc4c3CCN2C(=O)c2cc(CC(C)C)nc(=O)[nH]2)n1 (configuration not stated)
IC50 [19]: > 59.6 µM (inactive)
IC50 [20]: > 59.6 µM (inactive)
IC50 [21]: > 59.6 µM (inactive)

C[C@@H]1CN([C@@H](C)CO)C(=O)Cc2cc(NC(=O)Nc3ccc(C(F)(F)F)cc3)ccc2O[C@@H]1CN(C)Cc1ccc2c(c1)OCO2
AC50 [1]: 2.01 µM (active)

O=C(CCN1C(=O)/C(=C/c2ccccc2F)SC1=S)NCCCn1ccnc1
IC50 [19]: > 59.6 µM (inactive)
IC50 [20]: > 59.6 µM (inactive)
IC50 [21]: > 19.9 µM (inactive)

CC1=NN(Cc2ccccc2)C(=O)C1C(c1ccc(Cl)cc1)C(C#N)C#N (configuration not stated)
IC50 [14]: 55.2 µM (active)
AC50 [22]: 5.34 µM (active)
EC50 [23]: 2.5 µM (active)
